Experimental data from US20260115298A1, “PTH Treatment Regimen Comprising Two PTH Compounds” (priority 2022, published 2026).
Read-outs that look alike come from different tables or passages of the source.

How the values were obtained:
endogenous PTH 1-84 = conditions: healthy volunteers, no further suppression at higher doses, cited from earlier work
[1] = test system: individuals with hypoparathyroidism; type: in vivo, human; conditions: for Active Vitamin D dose / Calcium supplement dose / Serum Calcium: mean of Compound 1 group
Source text: PaTHway is a phase 3, multicenter (North America and Europe), randomized, double-blind, placebo-controlled, parallel-group, 26-week trial with an open-label extension of 156 weeks that evaluated the efficacy, safety, and tolerability of once-daily Compound 1 as PTH replacement therapy in individuals with hypoparathyroidism. All participants who completed the 26- week blinded treatment period were allowed to enroll in the 156-week open-label extension period. (ClinicalTrials.gov identifier: NCT04701203; EudraCT No.: 2020-003380-26).
Once enrolled, participants were randomized 3:1 into 2 treatment groups: Compound 1 18 μg PTH(1-34)/day or placebo (excipient solution) mimicking 18 μg/day, both co-administered with conventional therapy (active vitamin D and elemental calcium).
Randomization was stratified by etiology of hypoparathyroidism (postsurgical vs. non-surgical). In addition to frequent laboratory visits to measure serum calcium levels, the blinded treatment period included 10 clinic visits over 26 weeks. Once-daily treatment with Compound 1 or placebo was delivered by a modified Ypsomed UnoPen Fix pen injector using 31-gauge, 5 mm pen needles to deliver doses of 6-30 μg/injection in a volume of ≤100 μL to either abdomen or anterior thigh, rotating injection sites.
All participants were initially prescribed Compound 1 18 μg PTH(1-34)/day or a corresponding volume of placebo and were individually and progressively titrated to an optimal dose (allowable range 6-60 μg/day) in increments of 3 μg/day. Titration of study drug and conventional therapy was performed according to a protocol-specified algorithm guided by serum calcium values (Example 2). The algorithm was intended to facilitate independence from conventional therapy by discontinuation of active vitamin D and calcium in response to reestablishment of physiological PTH signaling with Compound 1 treatment. In the setting of normocalcemia, the protocol directs incremental increases in study drug (Compound 1 or placebo) accompanied by stepwise reductions of active vitamin D by 33-50% of the starting dose, followed by reductions of calcium in at least 1500 mg/day increments once vitamin D has been discontinued.
Participants were permitted to take elemental calcium <600 mg/day as a nutritional supplement if required to meet the generally recommended dietary intakes of calcium.
Treatment with Compound 1 was carried out in accordance with Example 1.

palopegteriparatide [Compound 1]
dose that fully suppresses endogenous PTH 1-84 (endogenous PTH 1-84): 16 µg/day
time to complete discontinuation of active vitamin D ([1]; Compound 1 group): ≤ 8 weeks
SAEs considered related to treatment ([1]; in vivo): one
participants reporting SAEs ([1]; in vivo): 8.2%
Active Vitamin D dose ([1]; week 0): 0.992 µg
Calcium supplement dose ([1]; week 0): 1748.03 mg
Serum Calcium ([1]; week 0): 8.8 mg/dL
Active Vitamin D dose ([1]; week 2): 0.098 µg
Calcium supplement dose ([1]; week 2): 1524.1 mg
Serum Calcium ([1]; week 2): 9.8 mg/dL
Active Vitamin D dose ([1]; week 4): 0.008 µg
Calcium supplement dose ([1]; week 4): 548.77 mg
Serum Calcium ([1]; week 4): 9.6 mg/dL
Active Vitamin D dose ([1]; week 6): 0.004 µg
Calcium supplement dose ([1]; week 6): 229.1 mg
Serum Calcium ([1]; week 6): 9.7 mg/dL
Active Vitamin D dose ([1]; week 8): 0 µg
Calcium supplement dose ([1]; week 8): 105.74 mg
Serum Calcium ([1]; week 8): 9.5 mg/dL
Active Vitamin D dose ([1]; week 10): 0 µg
Calcium supplement dose ([1]; week 10): 114.17 mg
Serum Calcium ([1]; week 10): 9.5 mg/dL
Active Vitamin D dose ([1]; week 12): 0 µg
Calcium supplement dose ([1]; week 12): 102.46 mg
Serum Calcium ([1]; week 12): 9.5 mg/dL
Active Vitamin D dose ([1]; week 16): 0 µg
Calcium supplement dose ([1]; week 16): 182.38 mg
Serum Calcium ([1]; week 16): 9.3 mg/dL
Active Vitamin D dose ([1]; week 20): 0 µg
Calcium supplement dose ([1]; week 20): 300.83 mg
Serum Calcium ([1]; week 20): 9.3 mg/dL
Active Vitamin D dose ([1]; week 26): 0 µg
Calcium supplement dose ([1]; week 26): 274.17 mg
Serum Calcium ([1]; week 26): 8.9 mg/dL
mean serum calcium (sCa) levels ([1]; when adequately titrated, all study visits): in the normal range

Compound 5: polypeptide having the sequence AVAEIQLMHQRAKWIQDARR RAFLHKLIAEIHTAEI, SEQ ID NO:122 (AVAEIQLMHQRAKWIQDARRRAFLHKLIAEIHTAEI; Artificial random coil) [reference compound]
dose able to suppress endogenous PTH 1-84 (endogenous PTH 1-84; daily dosing): 60 µg
